The term melting point denotes the temperature of the solid-liquid transition.

Turning to `CCOP(=O)(COC(=O)c1sc(C(C)(C)c2c(Cl)cc(-n3ncc(=O)[nH]c3=O)cc2Cl)nc1-c1ccccc1)OCC`, the melting point amounted to 88 °C.

Take `CC(C)(c1nc(-c2ccccc2)c(CC(=O)OC2CCOC2=O)s1)c1c(Cl)cc(-n2ncc(=O)[nH]c2=O)cc1Cl` (centres unmarked) [Compound 1]: the melting point was found to be 72 °C.

With `CCCCCCCCCCCCCCCOC(=O)Cc1sc(C(C)(C)c2c(Cl)cc(-n3ncc(=O)[nH]c3=O)cc2Cl)nc1-c1ccccc1` [Compound 2], the melting point is 80 °C.

On to `CC(C)(c1nc(-c2ccccc2)c(C(=O)OC2CCOC2=O)s1)c1c(Cl)cc(-n2ncc(=O)[nH]c2=O)cc1Cl` (centres unmarked) [Compound 3], for which the melting point was 208 °C.

As for `CC(C)(c1nc(-c2ccccc2)c(C(=O)SC2CCOC2=O)s1)c1c(Cl)cc(-n2ncc(=O)[nH]c2=O)cc1Cl` (centres unmarked) [Compound 4], the melting point worked out at 212 °C.

`CC(C)(c1nc(-c2cccs2)c(CC(=O)OC2CCOC2=O)s1)c1c(Cl)cc(-n2ncc(=O)[nH]c2=O)cc1Cl` (centres unmarked) [Compound 5] displayed a melting point of 110 °C.

As for `CCOC(=O)C(Cl)(Cl)c1ccccc1-c1nc(C(C)(C)c2c(Cl)cc(-n3ncc(=O)[nH]c3=O)cc2Cl)no1` [Compound 6], the melting point came to 157 °C.

The compound `Cc1oc(=O)oc1CSC(=O)c1sc(C(C)(C)c2c(Cl)cc(-n3ncc(=O)[nH]c3=O)cc2Cl)nc1-c1ccccc1` [Compound 71] registered a melting point of 97 °C.

The compound `Cc1oc(=O)oc1COC(=O)Cc1sc(C(C)(C)c2c(Cl)cc(-n3ncc(=O)[nH]c3=O)cc2Cl)nc1-c1ccccc1` [Compound 72] registered a melting point of 149 °C.

Take `CN(C)S(=O)(=O)NCCOC(=O)c1sc(C(C)(C)c2c(Cl)cc(-n3ncc(=O)[nH]c3=O)cc2Cl)nc1-c1ccccc1` [Compound 76]: the melting point worked out at 150 °C.

On to `CC(C)(c1nc(-c2ccccc2)c(C(=O)OCCNS(=O)(=O)N2CCCCC2)s1)c1c(Cl)cc(-n2ncc(=O)[nH]c2=O)cc1Cl` [Compound 77], for which the melting point worked out at 126 °C.

`CC(C)(c1nc(-c2ccccc2)c(C(=O)OCC(F)(F)F)s1)c1c(Cl)cc(-n2ncc(=O)[nH]c2=O)cc1Cl` [Compound 78]: the melting point worked out at 180 °C.

Take `CC(C)(c1nc(-c2ccccc2)c(C(=O)OCCN2CCN(S(N)(=O)=O)CC2)s1)c1c(Cl)cc(-n2ncc(=O)[nH]c2=O)cc1Cl` [Compound 79]: the melting point came out at 133 °C.

In turn, `CCOC(=O)CCc1sc(C(C)(C)c2c(Cl)cc(-n3ncc(=O)[nH]c3=O)cc2Cl)nc1-c1ccccc1` [Compound 80] came in with a melting point of 155 °C.

`CC(C)(c1nc(-c2ccccc2)c(CCC(=O)OC2CCOC2=O)s1)c1c(Cl)cc(-n2ncc(=O)[nH]c2=O)cc1Cl` (centres unmarked) [Compound 81] came in with a melting point of 190 °C.

As for `COCCOCCOC(=O)c1sc(C(C)(C)c2c(Cl)cc(-n3ncc(=O)[nH]c3=O)cc2Cl)nc1-c1ccccc1` [Compound 82], the melting point is 151 °C.

With `CN(C)S(=O)(=O)N1CCN(CCO)CC1` [Compound 83], the melting point was 186 °C.

`CN(C)S(=O)(=O)N1CCN(CCOC(=O)c2sc(C(C)(C)c3c(Cl)cc(-n4ncc(=O)[nH]c4=O)cc3Cl)nc2-c2ccccc2)CC1` [Compound 84] showed a melting point of 220 °C.

Compound `C=CCOC(=O)c1sc(C(C)(C)c2c(Cl)cc(-n3ncc(=O)[nH]c3=O)cc2Cl)nc1-c1ccccc1` [Compound 87] yielded a melting point of 172 °C.

Regarding `C#CCOC(=O)c1sc(C(C)(C)c2c(Cl)cc(-n3ncc(=O)[nH]c3=O)cc2Cl)nc1-c1ccccc1` [Compound 88], the melting point was 180 °C.

For `CON(C)C(=O)c1sc(C(C)(C)c2c(Cl)cc(-n3ncc(=O)[nH]c3=O)cc2Cl)nc1-c1ccccc1` [Compound 89], the melting point was determined as 112 °C.

Regarding `CC1(C)OCC(COC(=O)c2sc(C(C)(C)c3c(Cl)cc(-n4ncc(=O)[nH]c4=O)cc3Cl)nc2-c2ccccc2)O1` (centres unmarked) [Compound 92], the melting point was 163 °C.

On to `COCCOC(=O)OC(C)OC(=O)c1sc(C(C)(C)c2c(Cl)cc(-n3ncc(=O)[nH]c3=O)cc2Cl)nc1-c1ccccc1` (centres unmarked) [Compound 99], for which the melting point turned out to be 88 °C.

Compound `C[S+]([O-])CSC(=O)Cc1sc(C(C)(C)c2c(Cl)cc(-n3ncc(=O)[nH]c3=O)cc2Cl)nc1-c1ccccc1` (centres unmarked) [Compound 104] had a melting point of 154 °C.

As to `CC(=O)c1sc(C(C)(C)c2c(Cl)cc(-n3ncc(=O)[nH]c3=O)cc2Cl)nc1-c1ccccc1` [Compound 105], the melting point was 212 °C.

Turning to `Cc1nc(C(C)(C)c2c(Cl)cc(-n3ncc(=O)[nH]c3=O)cc2Cl)sc1C(=O)c1ccccc1` [Compound 107], the melting point is 174 °C.

Take `CCCC(=O)OCOC(=O)c1sc(C(C)(C)c2c(Cl)cc(-n3ncc(=O)[nH]c3=O)cc2Cl)nc1-c1ccccc1` [Compound 108]: the melting point was 146 °C.

On to `CC(OC(=O)OCCS(C)(=O)=O)OC(=O)c1sc(C(C)(C)c2c(Cl)cc(-n3ncc(=O)[nH]c3=O)cc2Cl)nc1-c1ccccc1` (centres unmarked) [Compound 110], for which the melting point turned out to be 104 °C.

For the compound `CC(C)(c1nc(-c2ccccc2)c(C(=O)OCC2COC(=S)O2)s1)c1c(Cl)cc(-n2ncc(=O)[nH]c2=O)cc1Cl` (centres unmarked) [Compound 111], the melting point turned out to be 130 °C.

On to `CC(C)(c1nc(-c2ccccc2)c(CSC2CCOC2=O)s1)c1c(Cl)cc(-n2ncc(=O)[nH]c2=O)cc1Cl` (centres unmarked) [Compound 116], for which the melting point turned out to be 100 °C.

For the compound `COC(=O)C(CCCO)OC(=O)c1sc(C(C)(C)c2c(Cl)cc(-n3ncc(=O)[nH]c3=O)cc2Cl)nc1-c1ccccc1` (centres unmarked) [Compound 121], the melting point was 100 °C.

For `CC(C)(c1nc(-c2ccccc2)c(C(=O)OCOC(=O)C2CCCCC2)s1)c1c(Cl)cc(-n2ncc(=O)[nH]c2=O)cc1Cl` [Compound 125], the melting point was found to be 130 °C.

With `CN1CCN(CCOC(=O)c2sc(C(C)(C)c3c(Cl)cc(-n4ncc(=O)[nH]c4=O)cc3Cl)nc2-c2ccccc2)S1(=O)=O` [Compound 128], the melting point turned out to be 112 °C.

On to `CC(C)(c1nc(-c2ccccc2)c(C(=O)OC2COC(=O)C2O)s1)c1c(Cl)cc(-n2ncc(=O)[nH]c2=O)cc1Cl` (centres unmarked) [Compound 131], for which the melting point is 144 °C.

`CC(C)(c1nc(-c2ccccc2)c(C(=O)OC2CCCC(OC(=O)c3sc(C(C)(C)c4c(Cl)cc(-n5ncc(=O)[nH]c5=O)cc4Cl)nc3-c3ccccc3)C2)s1)c1c(Cl)cc(-n2ncc(=O)[nH]c2=O)cc1Cl` (centres unmarked) [Compound 139] showed a melting point of 180 °C.

`CC(C)(c1nc(-c2ccccc2)c(C(=O)OC2CCCC(O)C2)s1)c1c(Cl)cc(-n2ncc(=O)[nH]c2=O)cc1Cl` (centres unmarked) [Compound 140] had a melting point of 175 °C.

As to `CC(OC(=O)c1sc(C(C)(C)c2c(Cl)cc(-n3ncc(=O)[nH]c3=O)cc2Cl)nc1-c1ccccc1)OC(=O)C(c1ccccc1)C1CCCC1` (centres unmarked) [Compound 141], the melting point turned out to be 110 °C.

With `CC(C)(c1nc(-c2ccccc2)c(C(=O)OCCN2CCN(S(=O)(=O)N3CCCC3)CC2)s1)c1c(Cl)cc(-n2ncc(=O)[nH]c2=O)cc1Cl` [Compound 146], the melting point was found to be 196 °C.

Values taken from patent US6911444B2, “Non-steroidal IL-5 inhibitors, processes and intermediates for their preparation and pharmaceutical compositions comprising said inhibitors” (Janssen Pharmaceutics N.V., priority 1999, dated 2005).
